According to patent publication US20070185161A1, “Bicyclic substituted indole-derivative steroid hormone nuclear receptor modulators” (priority 2004, published 2007):

What follows are molecules tested against T1, human MR (Homo sapiens, UniProt P08235) (assay: Mineralocorticoid Receptor Binding Assay (Method 1)). Details: [3H]-aldosterone, racemic mixture unless otherwise indicated.
T1 construct: The full length human MR gene is cloned from a human kidney or human brain cDNA library; made in house; host or cells: SF9 insect cells (baculovirus)
T1 sequence (P08235 1-984): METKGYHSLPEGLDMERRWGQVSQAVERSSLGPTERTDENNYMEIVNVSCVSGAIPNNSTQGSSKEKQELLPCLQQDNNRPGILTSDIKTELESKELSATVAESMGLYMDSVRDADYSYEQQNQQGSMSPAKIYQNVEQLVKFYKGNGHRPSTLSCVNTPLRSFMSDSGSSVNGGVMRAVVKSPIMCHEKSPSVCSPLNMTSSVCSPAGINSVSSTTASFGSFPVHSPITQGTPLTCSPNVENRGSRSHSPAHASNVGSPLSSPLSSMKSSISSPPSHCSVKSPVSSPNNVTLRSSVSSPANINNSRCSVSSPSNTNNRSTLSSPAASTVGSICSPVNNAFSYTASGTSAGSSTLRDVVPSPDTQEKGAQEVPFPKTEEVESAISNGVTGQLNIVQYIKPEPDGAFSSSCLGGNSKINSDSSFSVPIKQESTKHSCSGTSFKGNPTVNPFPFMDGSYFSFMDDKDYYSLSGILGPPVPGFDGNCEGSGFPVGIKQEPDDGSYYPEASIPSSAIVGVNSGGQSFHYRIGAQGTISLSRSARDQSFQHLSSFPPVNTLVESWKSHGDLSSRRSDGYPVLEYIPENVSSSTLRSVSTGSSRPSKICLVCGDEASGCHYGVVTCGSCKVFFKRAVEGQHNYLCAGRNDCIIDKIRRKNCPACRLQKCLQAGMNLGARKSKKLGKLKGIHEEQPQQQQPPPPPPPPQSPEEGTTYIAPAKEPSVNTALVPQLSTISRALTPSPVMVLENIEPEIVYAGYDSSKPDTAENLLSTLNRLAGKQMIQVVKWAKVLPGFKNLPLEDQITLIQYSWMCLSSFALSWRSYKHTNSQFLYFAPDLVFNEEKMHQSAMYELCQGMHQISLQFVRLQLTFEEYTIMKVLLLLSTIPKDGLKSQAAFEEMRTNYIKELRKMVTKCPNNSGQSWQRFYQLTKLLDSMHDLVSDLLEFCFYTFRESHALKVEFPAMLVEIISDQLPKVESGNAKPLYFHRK
Experimental: The full length human MR gene is cloned from a human kidney or human brain cDNA library. Briefly, using synthetic oligonucleotide primers (Eli Lilly and Company, Indianapolis) directed to nucleotides 20-54 and 3700-3666 of the human MR, polymerase chain reaction (PCR) is performed under standard conditions using a human cDNA library. The PCR reaction is performed in a final volume of 50 μl containing about 1 μl of a 50× stock solution of polymerase; about 1 μl of a 50× stock solution of dNTP; about 5 μl of an appropriate PCR buffer; about 1 μl of each primer; about 5 μl of a H. kidney or H. brain cDNA library; and about 36 μl of water. The reaction is allowed to denature for about 30 seconds at 95 degrees Celsius, anneal for about 30 seconds at 55 degrees Celsius, and extend for about 5 minutes at 72 degrees Celsius, the sequence being repeated for a total of about 35 cycles. The desired PCR product (3.68 Kb) is confirmed by gel electrophoresis and subsequently cut from the gel and stored at about −20 degrees Celsius until extraction. To extract the cDNA product from the agarose gel, the QIAEX II Gel Extraction protocol (QIAGEN, Inc.) is employed according to the manufacturer's instructions. Following extraction, the MR cDNA is cloned into an appropriate cloning vector (Zero Blunt TOPO PCR Cloning Kit (Invitrogen, Inc.) and a pAcHLT-baculovirus transfer vector (B.D./Pharminogen), then expressed in SF9 insect cells, essentially according to manufacturer's instructions. Sf9 cells are grown at a scale where gram quantity cell pellets are obtained for subsequent use in the MR binding assay. Harvested cell pellets are lysed by repeated freeze-thaw cycles (about 4) in a suitable lysis buffer then centrifuged at about 1×10^3 G (with the supernatant being saved for future assays).
MR binding assays are performed in a final total volume of about 250 μl containing about 20-25 μg of protein and 0.5 nM of [^3H]-aldosterone plus varying concentrations of test compound or vehicle. The assay binding buffer consists of 30 mM sodium molybdate, 30 mM of TRIS-HCl, 5 mM sodium phosphate, 5 mM sodium pyrophosphate, and about 10% glycerol, pH=7.5.
Briefly, assays are prepared at RT in 96-well Falcon 3072 plates, each well containing 210 μl of binding buffer, 10 μl of [^3H]-aldosterone, 10 μl of test compound/vehicle, and 20 μl of the resuspended receptor protein extract. Incubations are carried out at 4 degrees Celsius with shaking for about 16 hours. 200 μl aliquots of each incubation are filtered onto Millipore HA 0.45 micron 96-well filter plates, pre-moistened with cold 30 mM TRIS-HCl. The filter plates are suctioned dry with vacuum and immediately washed 3× with cold 30 mM TRIS-HCl. The plates are then punched out and the amount of receptor-ligand complex is determined by liquid scintillation counting using 4 ml of Ready Protein Plus™ liquid scintillation cocktail.
IC50 values (defined as the concentration of test compound required to decrease [^3H]-aldosterone binding by 50%) are then determined. Ki values for each respective test compound can then be calculated by application of the Cheng-Prusoff equation as described in Cheng et al., Relationship Between The Inhibition Constant (Ki) and The Concentration of Inhibitor Which Causes 50% Inhibition (IC50) of an Enzymatic Reaction, Biochem. Pharmacol., 22: 3099-31088; (1973).

| Ki [nM] | SMILES |
| --- | --- |
| ≤ 500 | CC1(c2c[nH]c3c(NS(C)(=O)=O)cccc23)CCc2cc(F)cc(F)c21 (single isomer, unassigned) [Example 22A, N-[3-(5,7-Difluoro-1-methyl-indan-1-yl)-1H-indol-7-yl]-methanesulfonamide] |
| ≤ 500 | CC1(c2c[nH]c3c(NS(C)(=O)=O)cccc23)CCc2cc(F)cc(F)c21 (single isomer, unassigned) [Example 22B, N-[3-(5,7-Difluoro-1-methyl-indan-1-yl)-1H-indol-7-yl]-methanesulfonamide] |
| ≤ 500 | CCC1(c2c[nH]c3c(NS(C)(=O)=O)cccc23)CCc2cc(F)cc(F)c21 (single isomer, unassigned) [Example 23A, N-[3-(1-Ethyl-5,7-difluoro-indan-1-yl)-1H-indol-7-yl]-methanesulfonamide] |
| ≤ 500 | CCC1(c2c[nH]c3c(NS(C)(=O)=O)cccc23)CCc2cc(F)cc(F)c21 (single isomer, unassigned) [Example 23B, N-[3-(1-Ethyl-5,7-difluoro-indan-1-yl)-1H-indol-7-yl]-methanesulfonamide] |
| ≤ 500 | CC1(c2c[nH]c3c(NS(C)(=O)=O)cccc23)CCCc2cc(F)ccc21 (single isomer, unassigned) [Example 28A, N-[3-(6-Fluoro-1-methyl-1,2,3,4-tetrahydro-naphthalen-1-yl)-1H-indol-7-yl]-methanesulfonamide] |
| ≤ 500 | CC1(c2c[nH]c3c(NS(C)(=O)=O)cccc23)CCCc2cc(F)ccc21 (single isomer, unassigned) [Example 28B, N-[3-(6-Fluoro-1-methyl-1,2,3,4-tetrahydro-naphthalen-1-yl)-1H-indol-7-yl]-methanesulfonamide] |
| ≤ 500 | CCC1(c2c[nH]c3c(NS(C)(=O)=O)cccc23)CCCc2cc(F)ccc21 (single isomer, unassigned) [Example 29A, N-[3-(1-Ethyl-6-fluoro-1,2,3,4-tetrahydro-naphthalen-1-yl)-1H-indol-7-yl]-methanesulfonamide] |
| ≤ 500 | CCC1(c2c[nH]c3c(NS(C)(=O)=O)cccc23)CCCc2cc(F)ccc21 (single isomer, unassigned) [Example 29B, N-[3-(1-Ethyl-6-fluoro-1,2,3,4-tetrahydro-naphthalen-1-yl)-1H-indol-7-yl]-methanesulfonamide] |
| ≤ 500 | CC1(c2c[nH]c3c(NS(C)(=O)=O)cccc23)CCOc2cc(F)ccc21 (single isomer, unassigned) [Example 34A, N-[3-(7-Fluoro-4-methyl-chroman-4-yl)-1H-indol-7-yl]-methanesulfonamide] |

Further lines, the molecule ahead of its results:

| SMILES | Ki [nM] |
| --- | --- |
| CCC1(c2c[nH]c3c(NS(C)(=O)=O)cccc23)CCc2cc(F)ccc21 (racemic) [Example 1, N-[3-(1-ethyl-5-fluoro-indan-1-yl)-1H-indol-7-yl]-methanesulfonamide] | ≤ 500 |
| CC1(c2c[nH]c3c(NS(C)(=O)=O)cccc23)CCc2cc(F)ccc21 (racemic) [Example 21, N-[3-(5-Fluoro-1-methyl-indan-1-yl)-1H-indol-7-yl]-methanesulfonamide] | ≤ 500 |
| CC1(c2c[nH]c3c(NS(C)(=O)=O)cccc23)CCc2cc(F)cc(F)c21 (racemic) [Example 22, N-[3-(5,7-Difluoro-1-methyl-indan-1-yl)-1H-indol-7-yl]-methanesulfonamide] | ≤ 500 |
| CCC1(c2c[nH]c3c(NS(C)(=O)=O)cccc23)CCc2cc(F)cc(F)c21 (racemic) [Example 23, N-[3-(1-Ethyl-5,7-difluoro-indan-1-yl)-1H-indol-7-yl]-methanesulfonamide] | ≤ 500 |
| CC1(c2c[nH]c3c(NS(C)(=O)=O)cccc23)CCCc2cc(F)ccc21 (racemic) [Example 28, N-[3-(6-Fluoro-1-methyl-1,2,3,4-tetrahydro-naphthalen-1-yl)-1H-indol-7-yl]-methanesulfonamide] | ≤ 500 |
| CCC1(c2c[nH]c3c(NS(C)(=O)=O)cccc23)CCCc2cc(F)ccc21 (racemic) [Example 29, N-[3-(1-Ethyl-6-fluoro-1,2,3,4-tetrahydro-naphthalen-1-yl)-1H-indol-7-yl]-methanesulfonamide] | ≤ 500 |
| CCC1(c2c[nH]c3c(NS(C)(=O)=O)cccc23)CCCc2cc(F)cc(F)c21 (racemic) [Example 31, N-[3-(1-Ethyl-6,8-difluoro-1,2,3,4-tetrahydro-naphthalen-1-yl)-1H-indol-7-yl]-methanesulfonamide] | ≤ 500 |
| CC1(c2c[nH]c3c(NS(C)(=O)=O)cccc23)CCOc2cc(F)ccc21 (racemic) [Example 34, N-[3-(7-Fluoro-4-methyl-chroman-4-yl)-1H-indol-7-yl]-methanesulfonamide] | ≤ 500 |
| CCC1(c2c[nH]c3c(NS(C)(=O)=O)cccc23)CCOc2cc(F)ccc21 (racemic) [Example 35, N-[3-(4-Ethyl-7-fluoro-chroman-4-yl)-1H-indol-7-yl]-methanesulfonamide] | ≤ 500 |
| CCC1(c2c[nH]c3c(NS(C)(=O)=O)cccc23)CCOc2cc(F)cc(F)c21 (racemic) [Example 36, N-[3-(4-Ethyl-5,7-difluoro-chroman-4-yl)-1H-indol-7-yl]-methanesulfonamide] | ≤ 500 |
| CS(=O)(=O)Nc1cccc2c(C3(C4CC4)CCc4cc(F)ccc43)c[nH]c12 (racemic) [Example 39, N-[3-(1-Cyclopropyl-5-fluoro-indan-1-yl)-1H-indol-7-yl]-methanesulfonamide] | ≤ 500 |
| CS(=O)(=O)Nc1cccc2c(C3(CCCO)CCc4cc(F)ccc43)c[nH]c12 (racemic) [Example 40, N-{3-[5-Fluoro-1-(3-hydroxy-propyl)-indan-1-yl]-1H-indol-7-yl}-methanesulfonamide] | ≤ 500 |
| CCC1(c2c[nH]c3c(NS(C)(=O)=O)cccc23)CCc2cc(F)ccc21 (single isomer, unassigned) [Example 1A, N-[3-(1-ethyl-5-fluoro-indan-1-yl)-1H-indol-7-yl]-methanesulfonamide] | ≤ 500 |
| CC1(c2c[nH]c3c(NS(C)(=O)=O)cccc23)CCc2cc(F)ccc21 (single isomer, unassigned) [Example 21A, N-[3-(5-Fluoro-1-methyl-indan-1-yl)-1H-indol-7-yl]-methanesulfonamide] | ≤ 500 |
| CC1(c2c[nH]c3c(NS(C)(=O)=O)cccc23)CCc2cc(F)ccc21 (single isomer, unassigned) [Example 21B, N-[3-(5-Fluoro-1-methyl-indan-1-yl)-1H-indol-7-yl]-methanesulfonamide] | ≤ 500 |
